This passage reports T/C results from PubChem BioAssay AID248 (DTP/NCI, 2004).

For this test, the system named is L1210 leukemia ip in BDF1 mice, survival T/C. As to the kind of experiment: NCI In Vivo Anticancer Drug Screen. Data for tumor model L1210 Leukemia (intraperitoneal) in B6D2F1 (BDF1) mice. To be noted: endpoint: mean survival time, higher = longer survival. The method in brief:
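Mice bearing the transplanted tumor received compound or vehicle. Survival of the treated group was divided by that of the vehicle-treated control group to give the ratio.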

The mark [1] stands for this setting: dose: 6.25 mg/kg/injection, schedule: Q01DX009 (ip), vehicle: saline.
Where [2] appears, read: dose: 6.25 mg/kg/injection, schedule: Q04DX003 (ip), vehicle: saline.
The mark [3] stands for this setting: dose: 12.5 mg/kg/injection, schedule: Q04DX003 (ip), vehicle: saline.
The mark [4] stands for this setting: dose: 25.0 mg/kg/injection, schedule: Q04DX003 (ip), vehicle: saline.
Where [5] appears, read: dose: 100.0 mg/kg/injection, schedule: Q04DX002 (ip), vehicle: Klucel (hydroxypropylcellulose) (HPC).
Setting [6] is: dose: 200.0 mg/kg/injection, schedule: Q04DX002 (ip), vehicle: Klucel (hydroxypropylcellulose) (HPC).
Setting [7] is: dose: 400.0 mg/kg/injection, schedule: Q04DX002 (ip), vehicle: Klucel (hydroxypropylcellulose) (HPC).
Setting [8] is: dose: 400.0 mg/kg/injection, schedule: Q04DX003 (ip), vehicle: Klucel (hydroxypropylcellulose) (HPC).
Where [9] appears, read: dose: 100.0 mg/kg/injection, schedule: Q01DX009 (ip), vehicle: Klucel (hydroxypropylcellulose) (HPC).
Where [10] appears, read: dose: 200.0 mg/kg/injection, schedule: Q01DX009 (ip), vehicle: Klucel (hydroxypropylcellulose) (HPC).
[11] abbreviates: dose: 400.0 mg/kg/injection, schedule: Q01DX009 (ip), vehicle: Klucel (hydroxypropylcellulose) (HPC).
Setting [12] is: dose: 100.0 mg/kg/injection, schedule: Q04DX003 (ip), vehicle: Klucel (hydroxypropylcellulose) (HPC).
[13] abbreviates: dose: 200.0 mg/kg/injection, schedule: Q04DX003 (ip), vehicle: Klucel (hydroxypropylcellulose) (HPC).

Structures are written as SMILES. Values joined by “and” are separate entries in the source; they are usually repeats but may differ in a detail not shown here. Equal entries are not always repeated. Inconclusive results and toxic doses are left out.

On to `ClCCCN1CCCCC1CCl` (stereo not given), for which the T/C is 114 % of control (dose: 3.12 mg/kg/injection, schedule: Q01DX009 (ip), vehicle: saline); 114 % of control under setting [1]; 111 % of control under setting [2]; 111 % of control under setting [3]; 150 % of control under setting [4].

On to `NNC(=O)Cc1csc2ccccc12`, for which the T/C (dose: 55.5 mg/kg/injection, schedule: Q01DX Z (ip), vehicle: carboxymethylcellulose (CMC)) is 102 % of control; the T/C (dose: 83.3 mg/kg/injection, schedule: Q01DX Z (ip), vehicle: carboxymethylcellulose (CMC)) was 114 % of control; the T/C (dose: 125.0 mg/kg/injection, schedule: Q01DX Z (ip), vehicle: carboxymethylcellulose (CMC)) is 119 % of control.

In the case of `CC1(C)CC(=O)C2=C(C1)Nc1ccc(Cl)cc1NC2c1ccccc1` (stereo not given), the T/C by setting is: (dose: 25.0 mg/kg/injection, schedule: Q04DX002 (ip), vehicle: Klucel (hydroxypropylcellulose) (HPC)) 92 % of control; (dose: 50.0 mg/kg/injection, schedule: Q04DX002 (ip), vehicle: Klucel (hydroxypropylcellulose) (HPC)) 106 % of control; under setting [5], 92 % of control; under setting [6], 103 % of control and 113 % of control; under setting [7], 106 % of control.

On to `O=C1NC2(CCCC2)C(=O)N2CCCC12` (stereo not given), for which, under setting [8], the T/C was 97 % of control.

On to `CCN1c2ccccc2C(Cl)(c2ccc(N(C)C)cc2)c2ccccc21`, for which the T/C (dose: 1.8 mg/kg/injection, schedule: Q03HX024 (ip), vehicle: saline) is 96 % of control; the T/C (dose: 2.6 mg/kg/injection, schedule: Q03HX024 (ip), vehicle: saline) was 88 % of control; the T/C (dose: 3.9 mg/kg/injection, schedule: Q03HX024 (ip), vehicle: saline) is 95 % of control; the T/C (dose: 5.9 mg/kg/injection, schedule: Q03HX024 (ip), vehicle: saline) was 101 % of control; the T/C under setting [1] is 93 % of control; the T/C under setting [2] was 95 % of control. For the same compound, the T/C is 101 % of control (dose: 8.8 mg/kg/injection, schedule: Q01DX009 (ip), vehicle: saline); 101 % of control and 104 % of control (dose: 8.8 mg/kg/injection, schedule: Q03HX024 (ip), vehicle: saline); 101 % of control (dose: 12.5 mg/kg/injection, schedule: Q01DX001 (ip), vehicle: saline); 115 % of control (dose: 12.5 mg/kg/injection, schedule: Q01DX009 (ip), vehicle: saline); 108 % of control under setting [3]; 105 % of control (dose: 13.0 mg/kg/injection, schedule: Q01DX009 (ip), vehicle: saline). The T/C was 103 % of control (dose: 18.0 mg/kg/injection, schedule: Q01DX001 (ip), vehicle: saline); 104 % of control (dose: 18.0 mg/kg/injection, schedule: Q04DX003 (ip), vehicle: saline); 106 % of control (dose: 20.0 mg/kg/injection, schedule: Q01DX009 (ip), vehicle: saline); 111 % of control (dose: 25.0 mg/kg/injection, schedule: Q01DX001 (ip), vehicle: saline); 112 % of control (dose: 25.0 mg/kg/injection, schedule: Q01DX009 (ip), vehicle: saline); 104 % of control under setting [4]. In addition, the T/C was 103 % of control (dose: 26.0 mg/kg/injection, schedule: Q01DX001 (ip), vehicle: saline); 102 % of control (dose: 26.0 mg/kg/injection, schedule: Q04DX003 (ip), vehicle: saline); 98 % of control (dose: 30.0 mg/kg/injection, schedule: Q01DX009 (ip), vehicle: saline); 104 % of control (dose: 39.0 mg/kg/injection, schedule: Q01DX001 (ip), vehicle: saline); 103 % of control (dose: 39.0 mg/kg/injection, schedule: Q04DX003 (ip), vehicle: saline).

`CCC[CH2][Sn]1([CH2]CCC)[CH]=CCC=[C]1C`: the T/C was 93 % of control (dose: 6.25 mg/kg/injection, schedule: Q01DX009 (ip), vehicle: saline with Tween-80); 93 % of control (dose: 12.5 mg/kg/injection, schedule: Q01DX009 (ip), vehicle: saline with Tween-80); 101 % of control and 89 % of control (dose: 25.0 mg/kg/injection, schedule: Q01DX009 (ip), vehicle: saline with Tween-80).

On to `CCOc1ccc2ccccc2c1`, for which the T/C was 102 % of control (dose: 100.0 mg/kg/injection, schedule: Q01DX001 (ip), vehicle: saline); 98 % of control (dose: 200.0 mg/kg/injection, schedule: Q01DX001 (ip), vehicle: saline); 102 % of control (dose: 400.0 mg/kg/injection, schedule: Q01DX001 (ip), vehicle: saline).

Take `N#CSCC1OCC(C(O)C(O)C2COC(CSC#N)O2)O1` (stereo not given): the T/C is, setting by setting: under setting [5], 95 % of control; under setting [6], 98 % of control; under setting [7], 95 % of control.

For `Nc1nc2c(nnn2C2OC(COP(=O)(O)O)C(O)C2O)c(=O)[nH]1` (stereo not given), the T/C is 89 % of control (dose: 2.5 mg/kg/injection, schedule: Q01DX Z (ip), vehicle: other); 97 % of control (dose: 5.0 mg/kg/injection, schedule: Q01DX Z (ip), vehicle: other); 102 % of control (dose: 10.0 mg/kg/injection, schedule: Q01DX Z (ip), vehicle: other); 118 % of control (dose: 20.0 mg/kg/injection, schedule: Q01DX Z (ip), vehicle: other); 120 % of control (dose: 30.0 mg/kg/injection, schedule: Q01DX Z (ip), vehicle: other); 118 % of control (dose: 50.0 mg/kg/injection, schedule: Q01DX Z (ip), vehicle: other).

With `CN(C)C=Nc1ccc(F)cc1`, the T/C is, setting by setting: (dose: 50.0 mg/kg/injection, schedule: Q01DX001 (ip), vehicle: carboxymethylcellulose (CMC)) 94 % of control; (dose: 100.0 mg/kg/injection, schedule: Q01DX001 (ip), vehicle: carboxymethylcellulose (CMC)) 102 % of control; (dose: 200.0 mg/kg/injection, schedule: Q01DX001 (ip), vehicle: carboxymethylcellulose (CMC)) 104 % of control; (dose: 400.0 mg/kg/injection, schedule: Q01DX001 (ip), vehicle: carboxymethylcellulose (CMC)) 105 % of control.

As to `Cc1ccc(S(=O)(=O)NC(c2ccccc2)(c2ccccc2)c2ccccc2)cc1`, the T/C (dose: 100.0 mg/kg/injection, schedule: Q01DX009 (ip), vehicle: saline with Tween-80) was 96 % of control; the T/C (dose: 100.0 mg/kg/injection, schedule: Q04DX003 (ip), vehicle: acetone) was 96 % of control; the T/C (dose: 200.0 mg/kg/injection, schedule: Q01DX009 (ip), vehicle: saline with Tween-80) is 88 % of control; the T/C (dose: 200.0 mg/kg/injection, schedule: Q04DX003 (ip), vehicle: acetone) is 95 % of control; the T/C (dose: 400.0 mg/kg/injection, schedule: Q01DX009 (ip), vehicle: saline with Tween-80) is 93 % of control; the T/C (dose: 400.0 mg/kg/injection, schedule: Q04DX003 (ip), vehicle: acetone) is 96 % of control.

As for `OCC(Oc1ccccc1)C(O)C(O)C(CO)Oc1ccccc1` (stereo not given), the T/C runs as follows: under setting [9], 103 % of control; under setting [10], 103 % of control; under setting [11], 95 % of control.

On to `CCOC(=O)C(C)(C)CN(C)CC(C)(C)C=O`, for which the T/C is 97 % of control (dose: 100.0 mg/kg/injection, schedule: Q04DX002 (ip), vehicle: saline); 108 % of control (dose: 200.0 mg/kg/injection, schedule: Q04DX002 (ip), vehicle: saline); 101 % of control (dose: 400.0 mg/kg/injection, schedule: Q04DX002 (ip), vehicle: saline).

Turning to `CCC(C#N)(c1ccccc1)c1ccccc1`, the T/C by setting is: under setting [9], 96 % of control; under setting [12], 98 % of control; under setting [10], 94 % of control; under setting [13], 94 % of control; under setting [11], 94 % of control; under setting [8], 98 % of control.

Consider `COC(=O)c1ccc(C(=O)OC)c(NC(=O)CC(=O)c2ccc([N+](=O)[O-])cc2)c1`, for which the T/C runs as follows: under setting [9], 88 % of control; under setting [12], 101 % of control; under setting [10], 91 % of control; under setting [13], 90 % of control; under setting [11], 91 % of control; under setting [8], 96 % of control.
